Laboratory results published in PubChem BioAssay AID248 (DTP/NCI, 2004).
Values joined by “and” are separate entries in the source; they are usually repeats but may differ in a detail not shown here. Identical values can stand only once. Toxic doses and inconclusive results are not listed. No stated cut-off is given here; in the data, active means T/C of 150% or more; inactive means T/C below 125%.

Test system: L1210 leukemia ip in BDF1 mice, survival T/C
Assay: NCI In Vivo Anticancer Drug Screen. Data for tumor model L1210 Leukemia (intraperitoneal) in B6D2F1 (BDF1) mice
Settings: endpoint: mean survival time, higher = longer survival
How it was run: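 Antitumor effect is assessed in tumor-bearing animals. Survival in the compound arm is compared with a vehicle-dosed control arm and expressed as their quotient.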

[1] = dose: 100.0 mg/kg/injection, schedule: Q01DX001 (ip), vehicle: saline
[2] = dose: 200.0 mg/kg/injection, schedule: Q01DX001 (ip), vehicle: saline
[3] = dose: 400.0 mg/kg/injection, schedule: Q01DX001 (ip), vehicle: saline

Measured: T/C

O=C(N(CCc1ccc(O)cc1)Cc1ccc2c(c1)OCO2)C(F)(F)F
inactive: dose: 100.0 mg/kg/injection, schedule: Q04DX003 (ip), vehicle: gum acacia 91 % of control | dose: 200.0 mg/kg/injection, schedule: Q04DX003 (ip), vehicle: gum acacia 91 % of control | dose: 400.0 mg/kg/injection, schedule: Q04DX003 (ip), vehicle: gum acacia 88 % of control

CC(=O)c1c(O)c(Br)c(C)oc1=O
inactive: dose: 6.25 mg/kg/injection, schedule: Q01DX009 (ip), vehicle: Klucel (hydroxypropylcellulose) (HPC) 100 % of control | dose: 12.5 mg/kg/injection, schedule: Q01DX009 (ip), vehicle: Klucel (hydroxypropylcellulose) (HPC) 96 % of control | dose: 25.0 mg/kg/injection, schedule: Q01DX009 (ip), vehicle: Klucel (hydroxypropylcellulose) (HPC) 93 % of control | dose: 50.0 mg/kg/injection, schedule: Q01DX009 (ip), vehicle: Klucel (hydroxypropylcellulose) (HPC) 89 % of control

O/N=C\c1ccnc2ccccc12
inactive: dose: 100.0 mg/kg/injection, schedule: Q01DX009 (ip), vehicle: carboxymethylcellulose (CMC) 93 % of control and 98 % of control | dose: 100.0 mg/kg/injection, schedule: Q04DX002 (ip), vehicle: carboxymethylcellulose (CMC) 100 % of control (2×) and 104 % of control | dose: 100.0 mg/kg/injection, schedule: Q04DX003 (ip), vehicle: carboxymethylcellulose (CMC) 97 % of control | dose: 200.0 mg/kg/injection, schedule: Q01DX009 (ip), vehicle: carboxymethylcellulose (CMC) 105 % of control and 90 % of control | dose: 200.0 mg/kg/injection, schedule: Q04DX002 (ip), vehicle: carboxymethylcellulose (CMC) 95 % of control and 100 % of control (2×) | dose: 200.0 mg/kg/injection, schedule: Q04DX003 (ip), vehicle: carboxymethylcellulose (CMC) 104 % of control | dose: 400.0 mg/kg/injection, schedule: Q01DX009 (ip), vehicle: carboxymethylcellulose (CMC) 98 % of control | dose: 400.0 mg/kg/injection, schedule: Q04DX002 (ip), vehicle: carboxymethylcellulose (CMC) 100 % of control and 104 % of control and 90 % of control | dose: 400.0 mg/kg/injection, schedule: Q04DX003 (ip), vehicle: carboxymethylcellulose (CMC) 98 % of control

Nc1ccc(S(=O)(=O)Nc2ccc(S(=O)(=O)O)c3ccc(S(=O)(=O)O)cc23)cc1
inactive: dose: 75.0 mg/kg/injection, schedule: Q04DX003 (ip), vehicle: Klucel (hydroxypropylcellulose) (HPC) 95 % of control | dose: 150.0 mg/kg/injection, schedule: Q04DX003 (ip), vehicle: Klucel (hydroxypropylcellulose) (HPC) 93 % of control | dose: 300.0 mg/kg/injection, schedule: Q04DX003 (ip), vehicle: Klucel (hydroxypropylcellulose) (HPC) 98 % of control

CCCCSCCOC(=O)Nc1ccc(Cl)cc1
inactive: dose: 100.0 mg/kg/injection, schedule: Q01DX009 (ip), vehicle: Klucel (hydroxypropylcellulose) (HPC) 103 % of control | dose: 200.0 mg/kg/injection, schedule: Q01DX009 (ip), vehicle: Klucel (hydroxypropylcellulose) (HPC) 108 % of control | dose: 400.0 mg/kg/injection, schedule: Q01DX009 (ip), vehicle: Klucel (hydroxypropylcellulose) (HPC) 92 % of control

CCC1(/C=C/C(C)C)C(=O)NC(=O)NC1=O
inactive: dose: 75.0 mg/kg/injection, schedule: Q01DX001 (ip), vehicle: saline 105 % of control | dose: 150.0 mg/kg/injection, schedule: Q01DX001 (ip), vehicle: saline 93 % of control

Nc1nc(C(=O)O)cc(=O)[nH]1
inactive: dose: 100.0 mg/kg/injection, schedule: Q01DX001 (ip), vehicle: carboxymethylcellulose (CMC) 103 % of control | dose: 200.0 mg/kg/injection, schedule: Q01DX001 (ip), vehicle: carboxymethylcellulose (CMC) 113 % of control | dose: 400.0 mg/kg/injection, schedule: Q01DX001 (ip), vehicle: carboxymethylcellulose (CMC) 96 % of control

O=C1Nc2cccc3cc(O)cc1c23
inactive: [1] 105 % of control | [2] 87 % of control | [3] 92 % of control

CC(C)CC(NC(=O)OCc1ccccc1)C(=O)NCCCCCCNCCCCCCNC(=O)C(CC(C)C)NC(=O)OCc1ccccc1 (stereo unspecified)
inactive: dose: 50.0 mg/kg/injection, schedule: Q01DX001 (ip), vehicle: saline 95 % of control | [2] 98 % of control

CC12CCC3(CC1CC/C(=C\c1ccco1)C2=O)OCCO3 (stereo unspecified)
inactive: [1] 101 % of control | dose: 100.0 mg/kg/injection, schedule: Q04DX003 (ip), vehicle: saline 108 % of control | [2] 92 % of control | dose: 200.0 mg/kg/injection, schedule: Q04DX003 (ip), vehicle: saline 95 % of control | [3] 97 % of control | dose: 400.0 mg/kg/injection, schedule: Q04DX003 (ip), vehicle: saline 98 % of control

COc1cc(/C=C(/C#N)[N+](=O)[O-])ccc1O
inactive: dose: 3.12 mg/kg/injection, schedule: Q01DX009 (ip), vehicle: DMSO 93 % of control | dose: 6.25 mg/kg/injection, schedule: Q01DX009 (ip), vehicle: DMSO 91 % of control | dose: 12.5 mg/kg/injection, schedule: Q01DX009 (ip), vehicle: DMSO 94 % of control | dose: 12.5 mg/kg/injection, schedule: Q04DX003 (ip), vehicle: DMSO 102 % of control | dose: 25.0 mg/kg/injection, schedule: Q01DX009 (ip), vehicle: DMSO 89 % of control | dose: 25.0 mg/kg/injection, schedule: Q04DX003 (ip), vehicle: DMSO 114 % of control | dose: 50.0 mg/kg/injection, schedule: Q01DX009 (ip), vehicle: DMSO 93 % of control | dose: 50.0 mg/kg/injection, schedule: Q04DX003 (ip), vehicle: DMSO 101 % of control

O=C(O)c1c[nH]c2c(ccc3ccccc32)c1=O
inactive: dose: 100.0 mg/kg/injection, schedule: Q04DX002 (ip), vehicle: Klucel (hydroxypropylcellulose) (HPC) 103 % of control | dose: 200.0 mg/kg/injection, schedule: Q04DX002 (ip), vehicle: Klucel (hydroxypropylcellulose) (HPC) 122 % of control | dose: 400.0 mg/kg/injection, schedule: Q04DX002 (ip), vehicle: Klucel (hydroxypropylcellulose) (HPC) 92 % of control

CN(C)c1ccc(CNc2cccc([N+](=O)[O-])c2)cc1
inactive: dose: 100.0 mg/kg/injection, schedule: Q01DX001 (ip), vehicle: saline with Tween-80 96 % of control | dose: 200.0 mg/kg/injection, schedule: Q01DX001 (ip), vehicle: saline with Tween-80 90 % of control | dose: 400.0 mg/kg/injection, schedule: Q01DX001 (ip), vehicle: saline with Tween-80 95 % of control

COc1cc(/C=N/NC(=O)c2cccs2)cc(OC)c1OC
inactive: dose: 100.0 mg/kg/injection, schedule: Q01DX009 (ip), vehicle: saline with Tween-80 98 % of control | dose: 200.0 mg/kg/injection, schedule: Q01DX009 (ip), vehicle: saline with Tween-80 94 % of control | dose: 400.0 mg/kg/injection, schedule: Q01DX009 (ip), vehicle: saline with Tween-80 98 % of control

CCN(CC)CCC(=O)c1cccc2c1OC(C)(C)C2
inactive: dose: 12.5 mg/kg/injection, schedule: Q01DX009 (ip), vehicle: saline 100 % of control and 105 % of control | dose: 12.5 mg/kg/injection, schedule: Q04DX003 (ip), vehicle: saline 103 % of control | dose: 25.0 mg/kg/injection, schedule: Q01DX009 (ip), vehicle: saline 93 % of control and 100 % of control | dose: 25.0 mg/kg/injection, schedule: Q04DX003 (ip), vehicle: saline 97 % of control | dose: 50.0 mg/kg/injection, schedule: Q01DX009 (ip), vehicle: saline 93 % of control and 102 % of control | dose: 50.0 mg/kg/injection, schedule: Q04DX003 (ip), vehicle: saline 103 % of control

N#[N+]c1nc[nH]c1C(N)=O
inactive: dose: 0.4 mg/kg/injection, schedule: Q03HX008 (ip), vehicle: steriod suspending solution 92 % of control | dose: 0.6 mg/kg/injection, schedule: Q03HX008 (ip), vehicle: steriod suspending solution 96 % of control | dose: 0.9 mg/kg/injection, schedule: Q03HX008 (ip), vehicle: steriod suspending solution 97 % of control | dose: 1.3 mg/kg/injection, schedule: Q03HX008 (ip), vehicle: steriod suspending solution 89 % of control | dose: 1.8 mg/kg/injection, schedule: Q03HX008 (ip), vehicle: steriod suspending solution 92 % of control | dose: 2.6 mg/kg/injection, schedule: Q03HX008 (ip), vehicle: steriod suspending solution 97 % of control | dose: 3.75 mg/kg/injection, schedule: Q01DX001 (ip), vehicle: steriod suspending solution 93 % of control | dose: 3.8 mg/kg/injection, schedule: Q03HX008 (ip), vehicle: steriod suspending solution 95 % of control | dose: 6.25 mg/kg/injection, schedule: Q01DX001 (ip), vehicle: steriod suspending solution 96 % of control | dose: 12.5 mg/kg/injection, schedule: Q01DX001 (ip), vehicle: steriod suspending solution 99 % of control
